{
  "source": "patent US20100266712A1",
  "about": "“Prevention of Acute Kidney Injury” (Austin Health, priority 2007, published 2010)",
  "key": {"[1]": {"tested_on": "high-risk cardiac surgical patients undergoing cardiopulmonary bypass", "protocol": "A double-blind, randomised, placebo controlled trial of the effect of sodium bicarbonate on postoperative renal function and oxidative stress in subjects undergoing elective cardiopulmonary bypass surgery was conducted.\nThe Human Research Ethics Committee of the Austin Hospital approved the trial and the Therapeutic Goods Administration of the Australian Government, Department of Health and Ageing approved the use of sodium bicarbonate for this indication. Written informed consent was obtained from each patient. Patients were identified in surgical pre-admission clinics and on hospital wards. Patients who were enrolled were at high risk of post-operative AKI and were scheduled for elective cardiac surgery necessitating the use of CPB at a university tertiary referral hospital (Austin Hospital) and a co-located large private hospital (Warringal Hospital). Those considered at high risk for post-operative AKI, defined as fulfilling one or more pre-defined inclusion criteria and no exclusion criteria, were considered eligible. Patients at particular risk of post-bypass renal injury were defined as having at least one of the following: (a) age >70; (b) preoperative creatinine […]; (c) New York Heart Association symptom severity class 3 or 4; (d) valve surgery; (e) insulin dependent diabetes mellitus; or (f) redo surgery.\n(§1) Body weight adjusted dose of study medication was achieved by infusion of 154 mEq/L of sodium bicarbonate (Pfizer, Bentley, WA, Australia) or sodium chloride (Astra Zeneca, North Ryde, NSW, Australia) diluted in 5% dextrose (Baxter, Sydney, NSW, Australia) and H2O at an infusion rate of 3 mL kg^−1 h^−1 for 1 hour immediately after the induction of anesthesia, prior to the first surgical incision followed by continuous infusion at an infusion rate of 1 mL kg^−1 n^−1 over 23 hours. Sodium bicarbonate or sodium chloride was administered at a dose of 0.45 mEq/kg body weight over 1 hour followed by continuous intravenous infusion of 0.15 mEq/kg/hr over 23 hours (total dose of 4 mEq/kg over 24 hours).\nThe hospital pharmacy clinical trials coordinator used a Microsoft Excel-based (Microsoft Corp. Redmond, Wash., USA) random number generator to create the randomization list using a permuted block strategy with blocks of six. Infusion bags were each delivered in separate shrink-wrapped black plastic bags that were identical in appearance. Allocation concealment to patients, anesthesiologists, cardiac surgeons, intensive care specialists, bedside nurses and investigators (multiple blind) was ensured by central randomization through the Department of Pharmacy at the Austin Hospital.\nThe primary study outcome measure was the number of patients who developed post-operative acute kidney injury. This was defined as an increase in plasma creatinine concentration greater than 0.5 mg/dL (44 μmol/L) or greater than 25% from baseline to peak value at any time within the first five post-operative days. This definition is identical to that used in a recent large randomized controlled trial of cardiac surgery-associated AKI.\nThe renal secondary outcomes for this study were changes in plasma creatinine concentration within the first five post-operative days and in urinary neutrophil gelatinase-associated lipocalin (NGAL) concentration within the first 24 hours post-operatively. Creatinine was sampled daily and NGAL was sampled prior to induction of anesthesia, at 6 hours and at 24 hours after commencement of CPB. Creatinine was measured using the modified Jaffé method and NGAL as recently described (Mishra et al, 2005).\nAll data were analyzed according to the intention-to-treat principle. Continuous data were tested for normal distribution using histograms. Between-group comparisons for continuous data were performed with the use of the t test or the Mann-Whitney U test and for categorical data with the use of Fisher exact test or chi-square test where appropriate."}, "[2]": {"tested_on": "high-risk cardiac surgical patients undergoing cardiopulmonary bypass", "protocol": "as §1\nAdditional secondary outcomes included changes in acid-base status, clinical outcomes such as need for renal replacement therapy, duration of ventilation, length of intensive care unit and hospital stay, and adverse events.\n(§2) All data were analyzed according to the intention-to-treat principle. Continuous data were tested for normal distribution using histograms. Between-group comparisons for continuous data were performed with the use of the t test or the Mann-Whitney U test and for categorical data with the use of Fisher exact test or chi-square test where appropriate. All tests were 2-tailed and a P value <0.05 was taken to indicate statistical significance. Values were reported as means with standard error of the mean (SEM) and mean difference or odds ratio (OR) with 95% confidence interval (95% CI) estimate as appropriate.", "remark": "listed apart in the source"}, "[3]": {"tested_on": "high-risk cardiac surgical patients undergoing cardiopulmonary bypass", "protocol": "as §1\nSpecific adverse events targeted for detection included the incidence of hypernatremia ([Na^+]>150 mEq/L), hypokalemia ([K^+]<3.5 mEq/L), alkalemia (pH>7.50), post-operative atrial fibrillation and other post-operative arrhythmias (supraventricular arrhythmias, ventricular tachycardia and ventricular fibrillation) during study treatment.\nas §2", "remark": "listed apart in the source"}, "[4]": {"details": "from before to 24 hours after commencement of study infusion, N = 50"}, "[5]": {"details": "sodium bicarbonate vs sodium chloride"}, "[6]": {"details": "sodium bicarbonate vs sodium chloride, P<0.001"}},
  "data": [
    {"smiles": "O=C([O-])O.[Na+]", "note": "[sodium bicarbonate]", "values": [
      {"measurement": "increase in urinary NGAL concentration", "setting": "[1]; baseline to peak within first 24 hours post-operatively, compared to sodium chloride, P=0.009, FIG. 1B", "result": "attenuated"},
      {"measurement": "relative increase in plasma creatinine", "setting": "[1]; baseline to peak within first five post-operative days, mean ± SEM, P=0.01 vs sodium chloride", "result": "28.5±6.5", "unit": "%"},
      {"measurement": "absolute increase in plasma creatinine concentration", "setting": "[1]; compared to sodium chloride patients, P=0.01, FIG. 1A", "result": "less"},
      {"measurement": "patients with a plasma creatinine increase greater than 50% from baseline to peak value", "setting": "[1]; patients/N, control 15/50", "result": "8/50"},
      {"measurement": "patients who developed post-operative AKI", "setting": "[1]; patients/N, plasma creatinine increase >0.5 mg/dL (44 μmol/L) or >25% from baseline to peak within first five post-operative days, 4 mEq/kg i.v. over 24 hours", "result": "16/50"},
      {"measurement": "odds ratio for post-operative AKI", "setting": "[1]; vs. sodium chloride control group (26/50), 95% CI 0.19-0.98, P=0.04", "result": 0.43},
      {"measurement": "odds ratio for plasma creatinine increase greater than 50%", "setting": "[1]; vs. sodium chloride control, 95% CI 0.17-1.17, P=0.10", "result": 0.44},
      {"measurement": "absolute risk reduction for AKI", "setting": "[1]; vs. sodium chloride control, 95% CI 1.1-39.0%", "result": 20, "unit": "%"},
      {"measurement": "urine pH", "setting": "[2]; 6 and 24 hours after commencement of study drug infusion, P<0.001 vs control, FIG. 1C", "result": "induced urinary alkalinization"},
      {"measurement": "Length of stay in hospital, mean (SEM)", "setting": "[2]; N = 50, P=0.60", "result": "10.4 (1.0) days"},
      {"measurement": "Length of ventilation, mean (SEM)", "setting": "[2]; N = 50, P=0.83", "result": "1657 (299) min"},
      {"measurement": "Length of stay in intensive care unit, mean (SEM)", "setting": "[2]; N = 50, P=0.96", "result": "73.8 (14.0) hrs"},
      {"measurement": "Hospital deaths", "setting": "[2]; N = 50, P>0.99", "result": "1 (2) no. (%)"},
      {"measurement": "Renal replacement therapy", "setting": "[2]; N = 50, P>0.99", "result": "2 (4) no. (%)"},
      {"measurement": "Change in plasma base excess, mean (SEM)", "setting": "[2]; [4]", "result": "3.8 (0.5)"},
      {"measurement": "Change in plasma bicarbonate, mean (SEM)", "setting": "[2]; [4]", "result": "3.7 (0.5) mEq/L"},
      {"measurement": "Change in plasma pH, mean (SEM)", "setting": "[2]; [4]", "result": "0.04 (0.01)"},
      {"measurement": "Length of stay in hospital, Mean Difference", "setting": "[2]; [5]", "result": -0.8, "unit": "days"},
      {"measurement": "Length of stay in intensive care unit, Mean Difference", "setting": "[2]; [5]", "result": -1.0, "unit": "h"},
      {"measurement": "Length of ventilation, Mean Difference", "setting": "[2]; [5]", "result": -99, "unit": "min"},
      {"measurement": "Change in plasma base excess, Mean Difference", "setting": "[2]; [6]", "result": 6.0},
      {"measurement": "Change in plasma bicarbonate, Mean Difference", "setting": "[2]; [6]", "result": 5.2, "unit": "mEq/L"},
      {"measurement": "Change in plasma pH, Mean Difference", "setting": "[2]; [6]", "result": 0.07},
      {"measurement": "patients with plasma sodium concentration >150 mEq/L (hypernatremia)", "setting": "[3]; during study treatment, both groups", "result": "No patient"},
      {"measurement": "patients with an episode of supraventricular tachycardia", "setting": "[3]; during study treatment, of 50 patients", "result": "One"},
      {"measurement": "patients with a pH level greater than 7.50 (alkalemia)", "setting": "[3]; during study treatment, of 50 patients, P=0.24", "result": "three"},
      {"measurement": "incidence of new-onset atrial fibrillation", "setting": "[3]; during treatment, patients/N, control 4/50, P>0.99", "result": "5/50"},
      {"measurement": "patients with plasma potassium <3.5 mEq/L (hypokalemia)", "setting": "[3]; patients/N, control 1/50, P=0.20", "result": "5/50"}
    ]}
  ]
}
